# Values joined by “and” are separate entries in the source; they are usually repeats but may differ in a detail not shown here. Equal values may be shown once. “Also recorded” adds a separate entry of the source. Where a SMILES comes first, the peptide text is derived from it. [ ]: non-standard residue; d: D form. The star is where a group is joined. Nle = CCCC[C@H](N)C(=O)O; Hexanoyl = CCCCCC(=O)*; Ahx = NCCCCCC(=O)O
# Columns and labels:
# [1] = test system: MDCK cells; assay: Augmentation of HGF-dependent cell scattering in MDCK cells; assay type: cell-based, canine; details: with HGF, Dihexa 10^−10 M to 10^−14M, four days
# Description: augmentation of HGF-dependent c-Met phosphorylation in HEK293 cells, or 2) augmentation of HGF-dependent cell scattering in MDCK cells. All the compounds in Family one were tested using the c-Met phosphorylation assay. […]
# MDCK cells were grown to 100% confluency on the coverslips in six-well plates and washed twice with PBS. The confluent coverslips were then aseptically transferred to new six well plates containing 900 μl serum free DMEM. Norleual, Hinge peptide, and/or HGF (2.5 ng/ml) were added to appropriate wells. Control wells received PBS vehicle. […] Media was removed and cells were fixed with methanol. Cells were stained with Diff-Quik Wright-Giemsa (Dade-Behring, Newark, Del.) and digital images were taken. Coverslips were removed with forceps and more digital images were captured. Pixel quantification of images was achieved using Image J and statistics were performed using Prism 5 and InStat v.3.05.
# MDCK cells were grown to 100% confluency on the coverslips in six-well plates and washed twice with PBS. The confluent coverslips were then aseptically transferred to new six well plates containing 900 μl serum free DMEM. Norleual, Hinge peptide, and/or HGF (20 ng/ml) were added to appropriate wells. Control wells received PBS vehicle. […] Pixel quantification of images was achieved using Image J and statistics were performed using Prism 5 and InStat v.3.05.
# [2] = test system: scopolamine treated rats; assay: Morris water maze, scopolamine amnesia model; details: scopolamine ICV
# [3] = Dihexa plasma levels after IV infusion; assay type: in vivo, rat
# Description: FIG. 46. Dihexa plasma levels after intravascular (IV) infusion. Dihexa was administered to adult male Sprague Dawley rats at 10 mg/kg. Plasma sample were collected and analyzed by HPLC-MS. Plasma data were modeled by non-compartmental analysis using WinNonlin® software.
# [4] = test system: CA1 neurons in coronal slices of rat hippocampus; assay: Hippocampal long-term potentiation with theta burst stimulation; assay type: cell-based; details: Dihexa 1 μM applied 10 minutes prior to TBS
# Description: FIG. 45. Effect of Dihexa (Hex) on hippocampal long-term potentiation (LTP) generated with theta burst (TBS) stimulation. LTP was monitored at CA1 neurons in coronal slices of rat hippocampus. Dihexa (1 μM) was applied 10 minutes prior to TBS. 1N=4. Dihexa application augmented LTP.
# [5] = molecular target: T1, human HGF (Homo sapiens, UniProt P14210); assay: HGF dimerization; assay type: biochemical; details: 30 minutes in the presence of heparin; N=6
# T1 construct: purchased R&D Systems (Minneapolis, Minn.)
# Description: HGF dimerization was assessed using PAGE followed by silver staining (Kawas et al., 2011). Human HGF at a concentration of 0.08 ng/μl with or without 6-AH analogs was incubated with heparin at a final concentration of 5 μg/ml. Loading buffer was then added to each sample and the mixture separated by native PAGE using gradient Criterion XT precast gels (4-12% Bis-Tris; Biorad Laboratories, Hercules, Calif.). Next the gel was silver stained for the detection of the HGF monomers and dimers. Bands were quantitated from digital images using a UVP phosphoimager (Upland, Calif.).
# [6] = test system: aged rats; assay: Morris water maze, aged rat model; assay type: in vivo; details: aged rats of mixed sex; oral Dihexa 2 mg/kg/day, 8 days
# Description: Swim speed was determined from these values.
# [7] = test system: hippocampal neurons; assay: Immunocytochemistry: correlation of spines with synaptic markers; assay type: cell-based, rat; details: 10^−12 M, 5 days
# Description: (§1) Transfected neurons were treated, fixed and stained. Briefly, cells were permeablized with 0.1% Triton X-100 detergent (Bio-Rad; Hercules, Calif.) for 10 minutes. An 8% bovine serum albumin (Intergen Company; Burlington, Mass.) in PBS was used to prevent non-specific binding for one hour at R.T.; Primary antibody incubations were at a 1:2500 dilution (see below) in 1% BSA in PBS at 4° C. overnight. Secondary antibody, 1:3000 Alexafluor 488 goat-anti-mouse (Invitrogen: Carlsbad, Calif.) was applied for two hours at room temperature. Coverslips were mounted with ProLong Gold anti-fade reagent (Invitrogen; Carlsbad, Calif.) and all washes were done with PBS. Imaging and analysis were performed as described above. For presynaptic excitatory transmission the VGLUT1 (Synaptic Systems, Goettingen, Germany) marker (Balschun, Moechars et al.) was employed and for general presynaptic transmission synapsin1 (Synaptic Systems, Goettingen, Germany) (Ferreira and Rapoport 2002) was applied. A postsynaptic function was established by PSD-95 (Milipore, Billerica, Mass.) (El-Husseini, Schnell et al. 2000). In each instance the total number of spines was counted for the treatment groups, control, Nle1-AngIV and Dihexa, to ensure an active phenotype. The total number of actin enriched spines adjacent to VGLUT1 or Synapsin were counted and converted to a percentage as the percent correlation of treatment-induced spines to presynaptic markers is a strong indicator of ability to transmit excitatory signals.
# as §1, with “fixed and stained as previously described in Chapter two. Briefly, cells” for “fixed and stained. Briefly, cells”, “enriched spines (red) adjacent to” for “enriched spines adjacent to”
# T1 sequence (P14210 32-728): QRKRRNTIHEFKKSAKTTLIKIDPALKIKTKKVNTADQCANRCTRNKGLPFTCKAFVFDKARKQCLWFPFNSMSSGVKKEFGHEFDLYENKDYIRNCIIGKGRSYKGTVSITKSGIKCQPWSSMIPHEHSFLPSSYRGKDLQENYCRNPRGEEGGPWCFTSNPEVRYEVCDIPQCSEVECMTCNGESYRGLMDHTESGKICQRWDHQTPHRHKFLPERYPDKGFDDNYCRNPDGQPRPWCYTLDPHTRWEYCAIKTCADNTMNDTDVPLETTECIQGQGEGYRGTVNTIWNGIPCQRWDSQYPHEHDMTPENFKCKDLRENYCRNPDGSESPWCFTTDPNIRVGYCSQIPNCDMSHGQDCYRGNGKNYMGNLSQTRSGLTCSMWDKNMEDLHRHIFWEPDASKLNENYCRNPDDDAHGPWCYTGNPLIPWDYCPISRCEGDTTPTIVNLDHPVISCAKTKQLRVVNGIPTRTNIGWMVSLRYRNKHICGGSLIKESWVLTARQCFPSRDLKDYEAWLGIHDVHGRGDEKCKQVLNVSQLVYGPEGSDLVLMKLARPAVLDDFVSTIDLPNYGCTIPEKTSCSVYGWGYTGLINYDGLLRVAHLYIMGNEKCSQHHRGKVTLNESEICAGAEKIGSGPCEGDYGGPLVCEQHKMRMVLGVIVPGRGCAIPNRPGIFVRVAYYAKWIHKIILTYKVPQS
"Elimination (circulating) half-life t1/2 ([3]; IV 10 mg/kg, adult male Sprague Dawley rats, non-compartmental analysis, 10 mg/kg)",Excretion ([3]; urine),HGF dimerization [5],Structure (SMILES),HGF-dependent MDCK cell scattering [1],HGF-dependent MDCK cell scattering ([1]; listed as N-hexanoyl-Tyr-Ile-(6) aminohexamide),"Water maze latency to find the pedestal: reversal of scopolamine deficits ([2]; Dihexa ICV high dose (100 μmoles, 100 pmoles elsewhere in the source), 5 trials/day, 8 days)",Water maze latency to find the pedestal: reversal of scopolamine deficits ([2]; Dihexa ICV low dose 10 μmoles),Water maze latency to find the pedestal: reversal of scopolamine deficits ([2]; Dihexa IP 0.5 mg/kg (high dose)),"Water maze latency to find the pedestal: reversal of scopolamine deficits ([2]; Dihexa orally 2 mg/kg/day (high dose), 2 mg/kg/day)",Long-term potentiation [4],Water maze performance of aged rats vs untreated controls [6],% Correlation PSD-95 [7] [%],% Correlation Synapsin [7] [%],% Correlation VGLUT1 [7] [%],Number of spines/50 μm (PSD-95 experiment) [7] [spines/50 μm],Number of spines/50 μm (Synapsin experiment) [7] [spines/50 μm],Number of spines/50 μm (VGLUT1 experiment) [7]
> 12 days and 12.68 days,excreted intact in the urine,blocks HGF dimerization,"CCCCCC(=O)N[C@@H](Cc1ccc(O)cc1)C(=O)N[C@H](C(=O)NCCCCCC(N)=O)[C@@H](C)CC [Dihexa, N-hexanoic-Tyr-Ile-(6)-aminohexanoic amide] (Hexanoyl-Tyr-Ile-[Ahx]-NH2)",stimulate MDCK cell scattering; also recorded: markedly stimulates cell scattering even at picomolar affinities,spectacularly augment HGF-dependent MDCK cell scattering,reversed scopolamine-dependent learning deficits; also recorded: completely overcome the scopolamine deficits,not 10 μmoles reversed scopolamine-dependent learning deficits,completely reverse the deficit seen with scopolamine,no different than controls; also recorded: completely overcome the scopolamine deficits; also recorded: completely reverse the deficit seen with scopolamine; also recorded: completely reverse the deficit produced by scopolamine,enhances LTP; also recorded: augmented LTP,preformed significantly better in the water maze than untreated rats; also recorded: performed significantly better than untreated controls; also recorded: significantly improved water maze performance,98.71,96.3,94.4,43,37,44.2 spines/50 μm and 44 spines/50 μm
–,–,–,"CCCC[C@H](N)C(=O)N[C@@H](Cc1ccc(O)cc1)C(=O)N[C@H](C(=O)N[C@@H](Cc1c[nH]cn1)C(=O)N1CCC[C@H]1C(=O)N[C@@H](Cc1ccccc1)C(=O)O)[C@@H](C)CC [Nle1-AngIV, reference compound] (H-[Nle]YIHPF-OH; N-terminus and C-terminus assumed)",–,–,–,–,–,–,–,–,97.38,94.2,95.1,36,31,39.4 spines/50 μm and 39 spines/50 μm

# Reference: patent publication US20140094413A1, “HEPATOCYTE GROWTH FACTOR (HGF) MIMICS AS THERAPEUTIC AGENTS” (WASHINGTON STATE UNIVERSITY, priority 2012, published 2014)
